Experimental data as given in patent US10364314B2, “Compound, resin, material for forming underlayer film for lithography, composition for forming underlayer film for lithography, underlayer film for lithography, resist pattern forming method, circuit pattern forming method, and purification method” (Mitsubishi Gas Chemical Company, Inc., priority 2015, dated 2019).

Assay: Solubility in PGME and PGMEA at 23° C.
Type: physicochemical
Method: The amount of each compound dissolved in 1-methoxy-2-propanol (PGME) and propylene glycol monomethyl ether acetate (PGMEA) was measured at 23° C., and the results were evaluated according to the following criteria.
Evaluation A: 10% by mass or more
Evaluation B: 5% by mass or more and less than 10% by mass
Evaluation C: less than 5% by mass

Row | Evaluation of the solubility in PGME and PGMEA | solubility in PGME and PGMEA [% by mass] | SMILES
1 | A (10% by mass or more) | ≥ 10 | Oc1ccc2ccc3c(c2c1)C(c1c[nH]cn1)c1c(ccc2ccc(O)cc12)O3 [IMX-1]
2 | A (10% by mass or more) | ≥ 10 | Oc1ccc2c3c(ccc2c1)Oc1ccc2cc(O)ccc2c1C3c1c[nH]cn1 [IMX-2]
3 | A (10% by mass or more) | ≥ 10 | Oc1ccc(-c2ccc(O)c(C(c3c[nH]cn3)c3cc(-c4ccc(O)cc4)ccc3O)c2)cc1 [IMX-3]
4 | A (10% by mass or more) | ≥ 10 | CCCCc1nc(C2c3c(ccc4cc(O)ccc34)Oc3ccc4cc(O)ccc4c32)c(Cl)[nH]1 [IMX-5]

Row | SMILES | Evaluation of the solubility in PGME and PGMEA | solubility in PGME and PGMEA [% by mass]
5 | Oc1ccc2c3c(ccc2c1)Oc1ccc2cc(O)ccc2c1C3c1c[nH]c(-c2ccccc2)n1 [IMX-4] | B (5% by mass or more and less than 10% by mass) | ≥ 5
